Experimental data from PMC6812009, “Covalent Aurora A regulation by the metabolic integrator coenzyme A” (Redox Biology, 2019).

What was measured:
Assay in all cases: Kinase profiling screen (radioactive filter-binding assay)
Type in all cases: biochemical
EF2K = EF2K (Homo sapiens, UniProt O00418); settings: 100 μM compound, 5 μM ATP; read-out: Kinase activity, % of activity in the absence of inhibitor
How it was run: (§1)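 Panel of 117 recombinant kinases; CoA, dpCoA, ADP each at 100 μM final, duplicates; model substrates, ATP at optimal level.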

ERK1 = ERK1 (Homo sapiens, UniProt P27361); settings: 100 μM compound, 5 μM ATP; read-out: Kinase activity, % of activity in the absence of inhibitor
ERK1, sequence (P27361 whole entry): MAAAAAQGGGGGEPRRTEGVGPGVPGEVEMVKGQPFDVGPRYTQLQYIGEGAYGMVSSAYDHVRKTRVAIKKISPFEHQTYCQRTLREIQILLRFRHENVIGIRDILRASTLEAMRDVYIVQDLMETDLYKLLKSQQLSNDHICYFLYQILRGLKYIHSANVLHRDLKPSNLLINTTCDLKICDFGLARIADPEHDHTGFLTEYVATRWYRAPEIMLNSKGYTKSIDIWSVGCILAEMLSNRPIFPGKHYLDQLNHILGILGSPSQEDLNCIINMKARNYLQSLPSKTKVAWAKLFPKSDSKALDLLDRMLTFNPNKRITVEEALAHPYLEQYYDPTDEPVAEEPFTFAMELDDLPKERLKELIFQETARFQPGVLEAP
How it was run: as §1

HER4 = HER4 (Homo sapiens, UniProt Q15303); settings: 100 μM compound, 5 μM ATP; read-out: Kinase activity, % of activity in the absence of inhibitor
HER4, sequence (Q15303 26-1308): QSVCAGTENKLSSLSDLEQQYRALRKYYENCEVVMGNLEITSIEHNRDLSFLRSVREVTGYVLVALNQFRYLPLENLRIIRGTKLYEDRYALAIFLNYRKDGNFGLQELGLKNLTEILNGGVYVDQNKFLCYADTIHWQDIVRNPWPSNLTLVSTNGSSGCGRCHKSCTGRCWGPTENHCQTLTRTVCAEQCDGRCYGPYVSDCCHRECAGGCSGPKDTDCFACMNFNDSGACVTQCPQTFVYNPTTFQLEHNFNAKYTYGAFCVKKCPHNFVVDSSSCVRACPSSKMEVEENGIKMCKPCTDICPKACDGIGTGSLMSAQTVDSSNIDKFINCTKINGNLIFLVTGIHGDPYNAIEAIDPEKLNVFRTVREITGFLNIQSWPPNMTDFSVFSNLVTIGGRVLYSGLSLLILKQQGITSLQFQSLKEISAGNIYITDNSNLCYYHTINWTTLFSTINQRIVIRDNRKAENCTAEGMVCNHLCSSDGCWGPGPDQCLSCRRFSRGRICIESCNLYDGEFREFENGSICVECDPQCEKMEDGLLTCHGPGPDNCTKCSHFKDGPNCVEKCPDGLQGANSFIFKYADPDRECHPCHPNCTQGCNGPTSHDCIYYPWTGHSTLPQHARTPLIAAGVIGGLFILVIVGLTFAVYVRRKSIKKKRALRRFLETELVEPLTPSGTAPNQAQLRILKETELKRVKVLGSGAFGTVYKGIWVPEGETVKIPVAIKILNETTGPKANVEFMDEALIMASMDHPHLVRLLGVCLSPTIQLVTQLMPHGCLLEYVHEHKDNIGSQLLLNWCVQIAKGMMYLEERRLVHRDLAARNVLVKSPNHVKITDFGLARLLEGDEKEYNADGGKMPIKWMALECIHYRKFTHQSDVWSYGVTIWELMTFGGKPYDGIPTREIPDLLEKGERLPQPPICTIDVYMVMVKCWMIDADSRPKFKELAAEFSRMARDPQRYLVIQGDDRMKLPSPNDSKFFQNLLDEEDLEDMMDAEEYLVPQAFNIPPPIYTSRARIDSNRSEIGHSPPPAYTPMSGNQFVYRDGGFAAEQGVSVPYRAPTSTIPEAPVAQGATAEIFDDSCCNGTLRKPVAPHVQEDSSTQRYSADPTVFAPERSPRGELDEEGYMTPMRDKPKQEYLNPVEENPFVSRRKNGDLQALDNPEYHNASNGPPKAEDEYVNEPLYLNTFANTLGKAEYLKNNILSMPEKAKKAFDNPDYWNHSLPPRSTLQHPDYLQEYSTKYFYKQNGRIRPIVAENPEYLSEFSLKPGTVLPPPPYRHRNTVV
How it was run: as §1

IKKβ = target: T1, IKKβ (Homo sapiens, UniProt O14920); settings: 100 μM compound, 5 μM ATP; read-out: Kinase activity, % of activity in the absence of inhibitor
T1 sequence (O14920 1-756): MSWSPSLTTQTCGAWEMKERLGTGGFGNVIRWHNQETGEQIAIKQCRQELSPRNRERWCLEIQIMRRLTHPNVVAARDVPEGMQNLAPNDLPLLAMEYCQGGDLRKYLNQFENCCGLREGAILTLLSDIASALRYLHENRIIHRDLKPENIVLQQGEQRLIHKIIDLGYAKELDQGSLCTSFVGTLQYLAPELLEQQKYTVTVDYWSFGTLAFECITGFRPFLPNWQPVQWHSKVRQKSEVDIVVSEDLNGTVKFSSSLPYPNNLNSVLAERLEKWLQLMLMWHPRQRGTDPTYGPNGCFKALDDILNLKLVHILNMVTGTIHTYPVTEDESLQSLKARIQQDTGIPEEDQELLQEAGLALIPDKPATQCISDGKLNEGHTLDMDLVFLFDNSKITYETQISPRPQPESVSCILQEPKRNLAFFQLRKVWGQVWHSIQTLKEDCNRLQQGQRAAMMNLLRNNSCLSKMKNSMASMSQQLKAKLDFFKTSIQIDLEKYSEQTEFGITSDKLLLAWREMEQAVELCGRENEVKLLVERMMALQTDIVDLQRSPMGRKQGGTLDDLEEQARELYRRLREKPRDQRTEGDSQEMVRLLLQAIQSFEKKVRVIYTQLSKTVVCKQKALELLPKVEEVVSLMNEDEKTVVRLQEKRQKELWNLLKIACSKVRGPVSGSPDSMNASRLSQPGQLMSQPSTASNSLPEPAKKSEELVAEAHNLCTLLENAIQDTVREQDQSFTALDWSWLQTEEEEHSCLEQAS
How it was run: as §1

JNK2 = JNK2 (Homo sapiens, UniProt P45984); settings: 100 μM compound, 20 μM ATP; read-out: Kinase activity, % of activity in the absence of inhibitor
JNK2, sequence (P45984 whole entry): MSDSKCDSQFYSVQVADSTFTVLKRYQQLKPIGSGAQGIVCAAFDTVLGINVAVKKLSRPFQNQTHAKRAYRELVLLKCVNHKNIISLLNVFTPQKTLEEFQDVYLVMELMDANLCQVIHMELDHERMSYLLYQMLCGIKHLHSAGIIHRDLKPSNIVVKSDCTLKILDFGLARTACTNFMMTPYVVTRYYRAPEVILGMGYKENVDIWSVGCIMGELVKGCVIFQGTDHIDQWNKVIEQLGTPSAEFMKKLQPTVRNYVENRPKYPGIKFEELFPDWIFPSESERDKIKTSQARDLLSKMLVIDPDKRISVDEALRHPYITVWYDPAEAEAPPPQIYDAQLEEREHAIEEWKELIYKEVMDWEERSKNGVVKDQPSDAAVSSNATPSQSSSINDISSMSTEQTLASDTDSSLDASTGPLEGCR
How it was run: as §1

Lck = Lck (Homo sapiens, UniProt P06239); settings: 100 μM compound, 50 μM ATP; read-out: Kinase activity, % of activity in the absence of inhibitor
Lck, sequence (P06239 whole entry): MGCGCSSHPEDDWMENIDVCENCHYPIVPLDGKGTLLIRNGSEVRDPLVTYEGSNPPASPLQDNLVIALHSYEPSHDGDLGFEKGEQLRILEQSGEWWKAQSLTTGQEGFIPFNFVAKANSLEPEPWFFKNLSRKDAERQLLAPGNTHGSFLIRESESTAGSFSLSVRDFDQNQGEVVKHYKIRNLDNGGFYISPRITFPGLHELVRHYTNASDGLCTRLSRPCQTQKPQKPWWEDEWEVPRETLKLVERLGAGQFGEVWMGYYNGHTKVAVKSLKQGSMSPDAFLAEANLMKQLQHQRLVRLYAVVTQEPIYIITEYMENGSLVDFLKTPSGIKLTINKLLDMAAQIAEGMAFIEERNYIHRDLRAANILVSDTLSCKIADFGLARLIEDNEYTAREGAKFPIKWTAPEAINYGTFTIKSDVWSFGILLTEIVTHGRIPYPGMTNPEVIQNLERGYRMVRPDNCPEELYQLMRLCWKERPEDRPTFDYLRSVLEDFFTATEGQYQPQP
How it was run: as §1

MARK4 = target: T2, MARK4 (Homo sapiens, UniProt Q96L34); settings: 100 μM compound, 50 μM ATP; read-out: Kinase activity, % of activity in the absence of inhibitor
T2 sequence (Q96L34 1-752): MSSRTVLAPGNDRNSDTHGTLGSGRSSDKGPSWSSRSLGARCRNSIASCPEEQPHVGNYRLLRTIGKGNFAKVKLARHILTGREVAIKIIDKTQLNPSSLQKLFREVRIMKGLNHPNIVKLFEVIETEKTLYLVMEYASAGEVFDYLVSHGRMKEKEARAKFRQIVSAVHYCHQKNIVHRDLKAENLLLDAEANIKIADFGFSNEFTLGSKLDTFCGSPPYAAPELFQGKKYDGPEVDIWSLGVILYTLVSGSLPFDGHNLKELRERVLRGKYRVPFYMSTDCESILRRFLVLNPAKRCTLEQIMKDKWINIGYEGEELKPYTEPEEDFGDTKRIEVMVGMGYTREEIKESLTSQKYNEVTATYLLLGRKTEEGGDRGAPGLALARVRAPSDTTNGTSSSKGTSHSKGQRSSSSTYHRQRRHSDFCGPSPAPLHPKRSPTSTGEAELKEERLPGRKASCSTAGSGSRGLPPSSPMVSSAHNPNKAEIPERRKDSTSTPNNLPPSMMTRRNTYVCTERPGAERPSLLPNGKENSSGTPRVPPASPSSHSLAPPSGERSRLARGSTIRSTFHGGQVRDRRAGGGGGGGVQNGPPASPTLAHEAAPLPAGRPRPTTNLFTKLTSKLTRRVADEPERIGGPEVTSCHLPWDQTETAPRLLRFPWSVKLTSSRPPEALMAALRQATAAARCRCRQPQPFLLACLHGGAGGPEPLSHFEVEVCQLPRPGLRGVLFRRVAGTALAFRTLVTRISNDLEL
How it was run: as §1

YES1 = YES1 (Homo sapiens, UniProt P07947); settings: for activity at 100 µM: 100 μM compound, 20 μM ATP, read-out: Kinase activity, % of activity in the absence of inhibitor
YES1, sequence (P07947 whole entry): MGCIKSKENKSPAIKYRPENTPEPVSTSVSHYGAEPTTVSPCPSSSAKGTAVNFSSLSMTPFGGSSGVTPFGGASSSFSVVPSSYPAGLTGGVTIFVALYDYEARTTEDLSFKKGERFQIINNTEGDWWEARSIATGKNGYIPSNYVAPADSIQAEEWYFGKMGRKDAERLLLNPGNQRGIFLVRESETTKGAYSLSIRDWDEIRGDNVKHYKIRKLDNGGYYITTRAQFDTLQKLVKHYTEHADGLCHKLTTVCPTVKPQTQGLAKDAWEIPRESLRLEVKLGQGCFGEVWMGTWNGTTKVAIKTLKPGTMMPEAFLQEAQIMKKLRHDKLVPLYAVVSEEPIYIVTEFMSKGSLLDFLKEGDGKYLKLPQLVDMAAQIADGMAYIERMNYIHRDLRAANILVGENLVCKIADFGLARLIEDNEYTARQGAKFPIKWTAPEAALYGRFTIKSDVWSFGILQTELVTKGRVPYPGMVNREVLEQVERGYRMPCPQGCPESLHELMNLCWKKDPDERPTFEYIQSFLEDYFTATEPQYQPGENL
How it was run: as §1

p38δ MAPK = target: T3, p38δ MAPK (Homo sapiens, UniProt O15264); settings: 100 μM compound, 5 μM ATP; read-out: Kinase activity, % of activity in the absence of inhibitor
T3 sequence (O15264 1-365): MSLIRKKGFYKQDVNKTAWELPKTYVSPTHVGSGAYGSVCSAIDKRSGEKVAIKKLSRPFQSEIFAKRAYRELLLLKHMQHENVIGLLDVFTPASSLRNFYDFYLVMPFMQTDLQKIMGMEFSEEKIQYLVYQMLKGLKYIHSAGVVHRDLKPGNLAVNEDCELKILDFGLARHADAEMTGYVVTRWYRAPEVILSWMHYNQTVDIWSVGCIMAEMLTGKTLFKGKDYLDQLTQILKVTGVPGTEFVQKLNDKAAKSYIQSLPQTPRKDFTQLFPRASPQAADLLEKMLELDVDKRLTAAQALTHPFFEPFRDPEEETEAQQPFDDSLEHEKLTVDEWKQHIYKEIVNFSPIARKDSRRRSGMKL
How it was run: as §1

Which activity at 100 µM (EF2K) does the source give for CC(C)(COP(=O)(O)OP(=O)(O)OC[C@H]1O[C@@H](n2cnc3c(N)ncnc32)[C@H](O)[C@@H]1OP(=O)(O)O)[C@@H](O)C(=O)NCCC(=O)NCCS [CoA, Coenzyme A] here?
Its activity at 100 µM is 67.1%.

What about the activity at 100 µM (ERK1) of the same compound?
Its activity at 100 µM is 118%.

And the activity at 100 µM (HER4)?
Its activity at 100 µM is 100%.

And the activity at 100 µM (IKKβ)?
The activity at 100 µM was 90.5%.

What about the activity at 100 µM (JNK2) of the same compound?
The activity at 100 µM was 93.9%.

And the activity at 100 µM (Lck)?
The activity at 100 µM was 100%.

And the activity at 100 µM (MARK4)?
The activity at 100 µM was 87.7%.

What about the inhibition at 100 µM (YES1; 100 μM CoA, kinase profiling screen, read-out: YES inhibition) of the same compound?
The inhibition at 100 µM was ≤ 50%.

And the activity at 100 µM (YES1)?
Its activity at 100 µM is 49%.

And the “YES inhibition (in words)” value (YES1; kinase profiling, 100 μM)?
The value was “modestly inhibited”.

What about the activity at 100 µM (p38δ MAPK) of the same compound?
The activity at 100 µM was 128%.

How did the activity at 100 µM (EF2K) turn out when Nc1ncnc2c1ncn2C1OC(COP(=O)(O)OP(=O)(O)O)C(O)C1O (centres unmarked) [ADP] was run?
The activity at 100 µM was 86.2%.

What about the activity at 100 µM (ERK1) of the same compound?
Its activity at 100 µM is 67.7%.

What about the activity at 100 µM (HER4) of the same compound?
The activity at 100 µM was 29.1%.

And the activity at 100 µM (IKKβ)?
Its activity at 100 µM is 26.6%.

And the activity at 100 µM (JNK2)?
The activity at 100 µM was 57.3%.

What about the activity at 100 µM (Lck) of the same compound?
Its activity at 100 µM is 35.1%.

And the activity at 100 µM (MARK4)?
Its activity at 100 µM is 49.1%.

What about the activity at 100 µM (YES1) of the same compound?
Its activity at 100 µM is 18.6%.

What about the activity at 100 µM (p38δ MAPK) of the same compound?
Its activity at 100 µM is 37.3%.

What does the source list for CC(C)(COP(=O)(O)OP(=O)(O)OCC1OC(n2cnc3c(N)ncnc32)C(O)C1O)C(O)C(=O)NCCC(=O)NCCS (centres unmarked) [dpCoA, dephospho-CoA]?
activity at 100 µM (EF2K): 103%; activity at 100 µM (ERK1): 114%; activity at 100 µM (HER4): 75.7%; activity at 100 µM (IKKβ): 48%; activity at 100 µM (JNK2): 76.1%; activity at 100 µM (Lck): 69%; activity at 100 µM (MARK4): 86.6%; activity at 100 µM (YES1): 11.5%; activity at 100 µM (p38δ MAPK): 71.3%
